For seven molecules, inhibition results are on record in US20260184663A1, “INDENE COMPOUNDS, PHARMACEUTICAL COMPOSITIONS THEREOF, AND THEIR THERAPEUTIC APPLICATIONS” (NucMito Pharmaceuticals co. Ltd., priority 2022, published 2026).

Holding throughout (format): cell-based
One assay has as its system SW480 (colon cancer). The experiment in a line: Antiproliferative activity (CCK-8 cell viability), SW480. Particulars: Homo sapiens, 72 h, read-out: Antiproliferative activity in cancerous cells, SW480 (inhibition of cell growth); for inhibition at 3.3 µM: Compound concentration: 3.3 μM; for inhibition at 10 µM: Compound concentration: 10 μM; for inhibition at 30 µM: Compound concentration: 30 μM. A digest of the protocol:
(§1)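 Growth inhibition graded in bands from percent viability against DMSO vehicle, read as CCK-8 absorbance at 450 nm. Compound tested at 3.3, 10 or 30 μM for 72 h, 37 °C; media contained 10% FBS: DMEM for HepG2/SW480, MEM for HeLa, F-12K for A549.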

In assay [1] the test system is B16F10 (malignant melanoma). The experiment in a line: Antiproliferative activity (CCK-8 cell viability), B16F10. Particulars: Mus musculus, 72 h, read-out: Antiproliferative activity in cancerous cells, B16F10 (inhibition of cell growth); for inhibition at 3.3 µM: B16-F10, Compound concentration: 3.3 μM; for inhibition at 10 µM: B16-F10, Compound concentration: 10 μM; for inhibition at 30 µM: B16-F10, Compound concentration: 30 μM. The gist of the method:
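Cell growth inhibition was measured in B16F10 malignant melanoma cells with a Cell Counting Kit-8 viability assay. Cells were maintained in DMEM plus 10% fetal bovine serum, seeded at 2,000-5,000 cells/well in 96-well plates, and treated for 72 h at 37° C. Viability was expressed relative to DMSO-treated vehicle control wells.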

Assay [2] concerns A549 (lung adenocarcinoma). The experiment in a line: Antiproliferative activity (CCK-8 cell viability), A549. Particulars: Homo sapiens, 72 h, read-out: Antiproliferative activity in cancerous cells, A549 (inhibition of cell growth); for inhibition at 3.3 µM: Compound concentration: 3.3 μM; for inhibition at 10 µM: Compound concentration: 10 μM; for inhibition at 30 µM: Compound concentration: 30 μM. The gist of the method:
as §1

Assay [3] deals with MDA-MB-231 (breast cancer). The experiment in a line: Antiproliferative activity (CCK-8 cell viability), MDA-MB-231. Particulars: Homo sapiens, 72 h, read-out: Antiproliferative activity in cancerous cells, MDA-MB-231 (inhibition of cell growth); for inhibition at 3.3 µM: Compound concentration: 3.3 μM; for inhibition at 10 µM: Compound concentration: 10 μM; for inhibition at 30 µM: Compound concentration: 30 μM. The gist of the method:
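Growth inhibition of human MDA-MB-231 breast cancer cells was assessed with a Cell Counting Kit-8. Cells cultured in DMEM plus 10% FBS were seeded at 2,000-5,000 cells/well, treated after attachment, and kept 72 h at 37° C. CCK-8 solution (10 μL) was added for 4 h, and absorbance at 450 nm was compared with DMSO-treated controls.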

For another assay, the system named is HeLa (cervical cancer). In words: Antiproliferative activity (CCK-8 cell viability), HeLa. Particulars: Homo sapiens, 72 h, read-out: Antiproliferative activity in cancerous cells, HELA (inhibition of cell growth); for inhibition at 3.3 µM: Compound concentration: 3.3 μM; for inhibition at 10 µM: Compound concentration: 10 μM; for inhibition at 30 µM: Compound concentration: 30 μM. A digest of the protocol: as §1

For assay [4], the system named is A431 (epidermoid carcinoma). In words: Antiproliferative activity (CCK-8 cell viability), A431. Particulars: Homo sapiens, 72 h, read-out: Antiproliferative activity in cancerous cells, A431 (inhibition of cell growth); for inhibition at 3.3 µM: A-431, Compound concentration: 3.3 μM; for inhibition at 10 µM: A-431, Compound concentration: 10 μM; for inhibition at 30 µM: A-431, Compound concentration: 30 μM. The gist of the method:
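This growth inhibition assay used A431 cells maintained in Dulbecco's modified Eagle's medium plus 10% fetal bovine serum. Cells were seeded in 96-well plates, treated with compound for 72 h at 37° C., and then given 10 μL CCK-8 solution. After a further 4 h, absorbance was read at 450 nm.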

The test system of the next assay is HepG2 (liver cancer). In words: Antiproliferative activity (CCK-8 cell viability), HepG2. Particulars: Homo sapiens, 72 h, read-out: Antiproliferative activity in cancerous cells, HepG2 (inhibition of cell growth); for inhibition at 3.3 µM: Compound concentration: 3.3 μM; for inhibition at 10 µM: Compound concentration: 10 μM; for inhibition at 30 µM: Compound concentration: 30 μM. A digest of the protocol:
as §1

In the case of `CC1=C(CC(=O)O)c2cc(F)ccc2/C1=C\c1ccc(CCOc2ccc(F)cc2)cc1` [B33, (Z)-2-(5-Fluoro-1-(4-(2-(4-fluorophenoxy)ethyl)benzylidene)-2-methyl-1H-inden-3-yl)acetic acid], the inhibition (in general, the change of the read-out against control, counted positive when it falls) at 3.3 µM in the assay with SW480 (colon cancer) was < 30%; in assay [1] it was ≥ 50%; in assay [2] it was < 30%; in assay [3] it was < 30%; with HeLa (cervical cancer), < 30%; in assay [4], ≥ 50%. Besides, the inhibition at 3.3 µM with HepG2 (liver cancer) is < 30%. Besides, the inhibition at 10 µM was 30 to 50% in the assay on SW480 (colon cancer); ≥ 50% in assay [1]; 30 to 50% in assay [2]; 30 to 50% in assay [3]; 30 to 50% in the assay with HeLa (cervical cancer); ≥ 50% in assay [4]. Further, the inhibition at 10 µM in the assay on HepG2 (liver cancer) was 30 to 50%.

On to `CC1=C(CC(=O)O)c2cc(F)ccc2/C1=C\c1cccc(CSc2ccc(F)cc2)c1` [B49, (Z)-2-(5-Fluoro-1-(3-(((4-fluorophenyl)thio)methyl)benzylidene)-2-methyl-1H-inden-3-yl)acetic acid], for which the inhibition at 3.3 µM was < 30% in the assay on SW480 (colon cancer); ≥ 50% in assay [1]; < 30% in assay [2]; ≥ 50% in assay [3]; < 30% with HeLa (cervical cancer); < 30% in assay [4]. For the same molecule, the inhibition at 3.3 µM with HepG2 (liver cancer) is < 30%. In addition, the inhibition at 10 µM in the assay with SW480 (colon cancer) is ≥ 50%; in assay [1], ≥ 50%; in assay [2] it was 30 to 50%; in assay [3], ≥ 50%; in the assay on HeLa (cervical cancer), ≥ 50%; in assay [4], 30 to 50%. Further, the inhibition at 10 µM in the assay on HepG2 (liver cancer) was ≥ 50%.

With `CC1=C(CC(=O)O)c2cc(F)ccc2/C1=C\c1ccc(C(=O)c2ccc(F)cc2)cc1` [C305, (Z)-2-(5-Fluoro-1-(4-(4-fluorobenzoyl)benzylidene)-2-methyl-1H-inden-3-yl)acetic acid], the inhibition at 3.3 µM with SW480 (colon cancer) was 30 to 50%; in assay [1], < 30%; in assay [2], < 30%; in assay [3], ≥ 50%; with HeLa (cervical cancer) it was 30 to 50%; in assay [4], 30 to 50%. For the same molecule, in the assay on HepG2 (liver cancer), the inhibition at 3.3 µM fell in the range of 30 to 50%. Also, the inhibition at 10 µM (with SW480 (colon cancer); in assay [1]; in assay [2]; in assay [3]; in the assay on HeLa (cervical cancer); in assay [4]) was ≥ 50% each time. In the assay with HepG2 (liver cancer), the inhibition at 10 µM is ≥ 50%. For the same molecule, the inhibition at 30 µM (with SW480 (colon cancer); in assay [1]; in assay [2]; in assay [3]; with HeLa (cervical cancer); in assay [4]) was ≥ 50% throughout. In addition, the inhibition at 30 µM with HepG2 (liver cancer) was ≥ 50%.

Turning to `CC1=C(CC(=O)O)c2cc(F)ccc2/C1=C/c1ccc(Oc2ccc(F)cc2F)cc1` [E17, (E)-2-(1-(4-(2,4-Difluorophenoxy)benzylidene)-5-fluoro-2-methyl-1H-inden-3-yl)acetic acid], the inhibition at 3.3 µM in the assay on SW480 (colon cancer) was < 30%; in assay [1], ≥ 50%; in assay [2], < 30%; in assay [3] it was 30 to 50%; in the assay with HeLa (cervical cancer) it was 30 to 50%; in assay [4], < 30%. In addition, the inhibition at 3.3 µM with HepG2 (liver cancer) is ≥ 50%. Moreover, the inhibition at 10 µM (with SW480 (colon cancer); in assay [1]; in assay [2]; in assay [3]; with HeLa (cervical cancer); in assay [4]) was ≥ 50% throughout. Also, the inhibition at 10 µM with HepG2 (liver cancer) is ≥ 50%. Further, the inhibition at 30 µM (with SW480 (colon cancer); in assay [1]; in assay [2]; in assay [3]; in the assay on HeLa (cervical cancer); in assay [4]) was ≥ 50% throughout. For the same molecule, the inhibition at 30 µM with HepG2 (liver cancer) is ≥ 50%.

`CC1=C(CC(=O)O)c2cc(F)ccc2/C1=C\c1ccc(COCc2ccc(Cl)cc2)cc1` [B103, (Z)-2-(1-(4-(((4-Chlorobenzyl)oxy)methyl)benzylidene)-5-fluoro-2-methyl-1H-inden-3-yl)acetic acid]: the inhibition at 3.3 µM with SW480 (colon cancer) was < 30%; in assay [1], < 30%; in assay [2] it was < 30%; in assay [3], 30 to 50%; in the assay on HeLa (cervical cancer) it was < 30%; in assay [4], ≥ 50%. Further, the inhibition at 3.3 µM with HepG2 (liver cancer) lay within 30 to 50%. The inhibition at 10 µM (in the assay with SW480 (colon cancer); in assay [1]; in assay [2]; in assay [3]; in the assay on HeLa (cervical cancer); in assay [4]) was ≥ 50% in each case. Besides, the inhibition at 10 µM in the assay with HepG2 (liver cancer) was ≥ 50%.

As for `CC1=C(CC(=O)O)c2cc(F)ccc2/C1=C\c1ccc(COCc2ccc(F)cc2)cc1` [B101, (Z)-2-(5-Fluoro-1-(4-(((4-fluorobenzyl)oxy)methyl)benzylidene)-2-methyl-1H-inden-3-yl)acetic acid], the inhibition at 3.3 µM in the assay with SW480 (colon cancer) is < 30%; in assay [1], < 30%; in assay [2] it was 30 to 50%; in assay [3] it was ≥ 50%; in the assay on HeLa (cervical cancer), < 30%; in assay [4], < 30%. In the assay with HepG2 (liver cancer), the inhibition at 3.3 µM is 30 to 50%. Besides, the inhibition at 10 µM in the assay with SW480 (colon cancer) was ≥ 50%; in assay [1], ≥ 50%; in assay [2] it was ≥ 50%; in assay [3], ≥ 50%; in the assay on HeLa (cervical cancer), ≥ 50%; in assay [4], 30 to 50%. Besides, in the assay on HepG2 (liver cancer), the inhibition at 10 µM was ≥ 50%.

With `CC1=C(CC(=O)O)c2cc(F)ccc2/C1=C\c1ccc(CCCc2ccc(F)cc2)cc1` [B117, (Z)-2-(5-Fluoro-1-(4-(3-(4-fluorophenyl)propyl)benzylidene)-2-methyl-1H-inden-3-yl)acetic acid], the inhibition at 3.3 µM in the assay on SW480 (colon cancer) is ≥ 50%; in assay [1] it was < 30%; in assay [2], 30 to 50%; in assay [3] it was < 30%; in the assay with HeLa (cervical cancer) it was < 30%; in assay [4], 30 to 50%. In addition, the inhibition at 3.3 µM with HepG2 (liver cancer) was ≥ 50%. Further, the inhibition at 10 µM in the assay on SW480 (colon cancer) is ≥ 50%; in assay [1] it was ≥ 50%; in assay [2], ≥ 50%; in assay [3], < 30%; in the assay on HeLa (cervical cancer), ≥ 50%; in assay [4] it was ≥ 50%. Besides, the inhibition at 10 µM in the assay with HepG2 (liver cancer) was ≥ 50%.
